The text below walks through data of PMC12245108 (Advanced Science, 2025).

One data set concerns the target MPXV I7L protease (Monkeypox virus, UniProt Q8V512). As to the kind of experiment: biochemical. Particulars: for inhibition at 100 µM: pH 7.5, read-out: inhibition rate.
The next data set relates to Vaccinia virus. Briefly: microbe, parasite or virus in culture. Format: cell-based. The following applies: Orthopoxvirus vaccinia, HeLa, 24 h, read-out: EC50 for vaccinia virus replication inhibition.
The nature of the next data set: in vitro. Particulars: human.

Molecules are shown by their SMILES. Where a SMILES comes first, the peptide text is derived from it. The star is where a group is joined. NHCH2CN = N#CCN*

The compound `CC(=O)N[C@@H](Cc1ccc(O)cc1)C(=O)N[C@@H](Cc1ccccc1)C(=O)N[C@@H](Cc1ccc(O)cc1)C(=O)N[C@@H](C)C(=O)NCC#N` [compound 3, (S)-2-acetamido-N-((S)-1-(((S)-1-(((S)-1-((cyanomethyl)amino)-1-oxopropan-2-yl)amino)-3-(4-hydroxyphenyl)-1-oxopropan-2-yl)amino)-1-oxo-3-phenylpropan-2-yl)-3-(4-hydroxyphenyl)propanamide] (Ac-YFYA-NHCH2CN) showed an IC50 on MPXV I7L protease of 79 ± 15 nM.
Take `CC(C)(C)NC(=O)N[C@H](C(=O)N1C[C@H]2[C@@H]([C@H]1C(=O)NC(CC1CCC1)C(=O)C(N)=O)C2(C)C)C(C)(C)C` (stereo partly shown) [Boceprevir, reference compound]: on MPXV I7L protease, the inhibition at 100 µM is under 50%.
`CC[C@H](C)[C@H](NC(C)=O)C(=O)N[C@@H](Cc1ccccc1)C(=O)N[C@@H](Cc1ccccc1)C(=O)N[C@@H](C)C(=O)NCC#N` [compound 1, (2S,3S)-2-acetamido-N-((S)-1-(((S)-1-(((S)-1-((cyanomethyl)amino)-1-oxopropan-2-yl)amino)-1-oxo-3-phenylpropan-2-yl)amino)-1-oxo-3-phenylpropan-2-yl)-3-methylpentanamide] (Ac-IFFA-NHCH2CN) came in with an IC50 against MPXV I7L protease of 171 nM.
In the case of `CC[C@H](C)[C@H](NC(=O)[C@@H](C)c1ccccc1)C(=O)N[C@@H](C)C(=O)NCC#N` [compound 11, (2S,3S)-N-((S)-1-((cyanomethyl)amino)-1-oxopropan-2-yl)-3-methyl-2-((S)-2-phenylpropanamido)pentanamide], the IC50 at MPXV I7L protease amounted to 69 nM. The EC50 in the data set on Vaccinia virus is 6000 nM. Further, the cytotoxicity entry with HeLa cells is reported as “no detectable cytotoxicity”. The compound also gave a CC50 in “in vitro” of over 400000 nM.
For `Cc1cccc(C)c1OCC(=O)N[C@@H](Cc1ccccc1)[C@@H](O)C[C@H](Cc1ccccc1)NC(=O)[C@H](C(C)C)N1CCCNC1=O` [Lopinavir, reference compound], the inhibition at 100 µM at MPXV I7L protease was under 50%.
With `CC[C@H](C)[C@H](NC(C)=O)C(=O)N[C@@H](Cc1ccccc1)C(=O)N[C@@H](CC(N)=O)C(=O)N[C@@H](C)C(=O)NCC#N` [compound 8, (S)-2-((S)-2-((2S,3S)-2-acetamido-3-methylpentanamido)-3-phenylpropanamido)-N^1-((S)-1-((cyanomethyl)amino)-1-oxopropan-2-yl)succinamide] (Ac-IFNA-NHCH2CN), the IC50 against MPXV I7L protease turned out to be 71 nM.
As for `CC(C)(C)[C@H](NC(=O)C(F)(F)F)C(=O)N1C[C@H]2[C@@H]([C@H]1C(=O)N[C@H](C#N)C[C@@H]1CCNC1=O)C2(C)C` [Nirmatrelvir, reference compound], the inhibition at 100 µM at MPXV I7L protease is under 50%.
On the same count and under the same terms, next, `CCC[C@H](NC(=O)[C@@H]1[C@H]2CCC[C@H]2CN1C(=O)[C@@H](NC(=O)[C@@H](NC(=O)c1cnccn1)C1CCCCC1)C(C)(C)C)C(=O)C(=O)NC1CC1` [Telaprevir, reference compound]: under 50%.
On MPXV I7L protease, `CC[C@H](C)[C@H](NC(=O)Cc1ccccc1)C(=O)N[C@@H](C)C(=O)NCC#N` [compound 10, (2S,3S)-N-((S)-1-((cyanomethyl)amino)-1-oxopropan-2-yl)-3-methyl-2-(2-phenylacetamido)pentanamide] yielded an IC50 of 122 nM. Moreover, the EC50 with Vaccinia virus was 6300 nM. Also, the cytotoxicity result with HeLa cells is “no detectable cytotoxicity”. Also, the CC50 in the data set “in vitro” is over 400000 nM.
On MPXV I7L protease, `CC[C@H](C)[C@H](NC(=O)[C@@H](NC(C)=O)C(C)C)C(=O)N[C@@H](C)C(=O)NCC#N` [compound 9, (2S,3S)-2-((S)-2-acetamido-3-methylbutanamido)-N-((S)-1-((cyanomethyl)amino)-1-oxopropan-2-yl)-3-methylpentanamide] registered an IC50 of 400 nM.
Take `CCCCCCCCCCCCCCCCOCCCOP(=O)(O)CO[C@H](CO)Cn1ccc(N)nc1=O` [Brincidofovir, reference compound]: the EC50 in the data set on Vaccinia virus is 900 nM.
`CC[C@H](C)[C@H](NC(=O)[C@@H](NC(=O)[C@H](CCSC)NC(C)=O)C(C)C)C(=O)N[C@@H](C)C(=O)NCC#N` [compound 2, (2S,3S)-2-((S)-2-((S)-2-acetamido-4-(methylthio)butanamido)-3-methylbutanamido)-N-((S)-1-((cyanomethyl)amino)-1-oxopropan-2-yl)-3-methylpentanamide] (Ac-MVIA-NHCH2CN) displayed an IC50 against MPXV I7L protease of 132 nM.
In turn, `CC[C@H](C)[C@H](NC(C)=O)C(=O)N[C@H](C(=O)N[C@@H](CC(N)=O)C(=O)N[C@@H](C)C(=O)NCC#N)[C@@H](C)O` [compound 4, (S)-2-((2S,3R)-2-((2S,3S)-2-acetamido-3-methylpentanamido)-3-hydroxybutanamido)-N^1-((S)-1-((cyanomethyl)amino)-1-oxopropan-2-yl)succinamide] (Ac-ITNA-NHCH2CN) registered an IC50 on MPXV I7L protease of 1620 nM.
As for `Cn1cnc(Cn2c(=O)[nH]/c(=N\c3cc4cn(C)nc4cc3Cl)n(Cc3cc(F)c(F)cc3F)c2=O)n1` [Ensitrelvir, reference compound], on MPXV I7L protease, the inhibition at 100 µM is under 50%.
For the compound `CCCC[C@H](NC(=O)[C@@H]1[C@@H]2[C@H](CN1C(=O)[C@@H](NC(=O)NC1(CS(=O)(=O)C(C)(C)C)CCCCC1)C(C)(C)C)C2(C)C)C(=O)C(=O)NC1CC1` [Narlaprevir, reference compound], on MPXV I7L protease, the inhibition at 100 µM was under 50%.
Regarding `CC(C)c1nc(CN(C)C(=O)N[C@H](C(=O)N[C@@H](Cc2ccccc2)C[C@H](O)[C@H](Cc2ccccc2)NC(=O)OCc2cncs2)C(C)C)cs1` [Ritonavir, reference compound], the inhibition at 100 µM on MPXV I7L protease was under 50%.
On MPXV I7L protease, `CC(=O)N[C@@H](CC(=O)O)C(=O)N[C@@H](Cc1ccccc1)C(=O)N[C@@H](CO)C(=O)N[C@@H](C)C(=O)NCC#N` [compound 6, (4S,7S,10S,13S)-13-acetamido-10-benzyl-1-cyano-7-(hydroxymethyl)-4-methyl-3,6,9,12-tetraoxo-2,5,8,11-tetraazapentadecan-15-oic acid] (Ac-DFSA-NHCH2CN) returned an IC50 of 74 ± 29 nM.
Take `CC(C)C[C@H](NC(=O)OCc1ccccc1)C(=O)N[C@@H](C[C@@H]1CCNC1=O)C(O)S(=O)(=O)[O-].[Na+]` (stereo partly shown) [GC376, reference compound]: the inhibition rate result against MPXV I7L protease (pH 7.5) was “below 50%”.
Turning to `CC[C@H](C)[C@H](NC(=O)[C@H](Cc1ccc(O)cc1)NC(=O)[C@@H]1CCCN1C(C)=O)C(=O)N[C@@H](C)C(=O)NCC#N` [compound 7, (S)-1-acetyl-N-((S)-1-(((2S,3S)-1-(((S)-1-((cyanomethyl)amino)-1-oxopropan-2-yl)amino)-3-methyl-1-oxopentan-2-yl)amino)-3-(4-hydroxyphenyl)-1-oxopropan-2-yl)pyrrolidine-2-carboxamide] (Ac-PYIA-NHCH2CN), it took 241 ± 29 nM to reach half-maximal inhibition against MPXV I7L protease (IC50).
